Assay results taken from patent US11299467B2 (Antabio SAS, priority 2017, dated 2022).
Where two headings read alike, the source gives them in different places.

What was measured:
[1] = Plasma stability of test compounds in human plasma; format: in vitro ADME; details: 1 μM, 37° C.
Experimental: [table] Test compound and QC compound were incubated at a final concentration of 1 μM in plasma at 37° C. in shaker water bath with gentle shaking. At predetermined time points, reaction was terminated with 200 μL of acetonitrile containing internal standard and centrifuged at 4000×RCF, 4° C. for 20 minutes. Supernatant was separated and analyzed by LC-MS/MS. The following equation was used to determine the percentage remaining of test/QC compound following the procedure above: […]

[2] = Plasma protein binding, rapid equilibrium dialysis, human plasma; format: in vitro ADME; details: 100% plasma, 5 h equilibrium dialysis
Experimental: [table] Test compound was spiked in plasma to a final concentration of 10 μM. An aliquot of 300 μL of plasma was placed in red chamber of the insert and 500 μL of PBS was placed into white chamber of the insert. The plate was incubated at 37° C. in thermomixer at 400 rpm for 5 hours. After incubation, the samples were matrix equilibrated with opposite matrix (10 μL of plasma/100 μL of buffer sample was matched with 100 μL of blank buffer/10 μL of plasma). Matrix matched samples were precipitated with 200 μL of acetonitrile containing internal standard. Samples were vortexed at 1000 rpm for 5 min and centrifuged at 4000 rpm for 10 min. Supernatant was separated, diluted 2 fold with water and analyzed on LC-MS/MS. Blank control samples were processed immediately after the preparation of plasma working stock solutions. These samples served as a measure for calculating the % recovery of test compounds. The percent plasma bound fraction was calculated by the following equations: % Unbound=100*FC/TC % Recovery=100*(FC+TC)/T0 where • TC=Total compound concentration as determined by the calculated concentration on the plasma side of the membrane • FC=Free compound concentration as determined by the calculated concentration on the buffer side of the membrane • T0=Total compound concentration as determined before dialysis For each set of duplicates/compound, the percentage bound, percentage unbound and percentage recovery was determined.

[3] = PK study, i.v. dosing in mice; format: in vivo, male Swiss albino mice; details: i.v. 1 mg/kg; for AUC / C0 / clearance: mouse, plasma, iv, male Swiss albino mice; for AUC: read-out: AUC (area under the curve); for C0: read-out: C0 (plasma concentration); for clearance: read-out: Cl (clearance)
Experimental: Compound A and Example 7 were dosed i.v. at 1 mg/kg to male Swiss albino mice.

NDM-1 = NDM-1 (Klebsiella pneumoniae, UniProt C7C422); test: In vitro enzyme inhibition assay, purified NDM-1 (imipenem hydrolysis, UV 299 nm); format: biochemical
Experimental: (§1) Enzyme inhibition assays were performed using purified MBL enzymes (NDM-1; VIM-1; VIM-2; IMP-1) in 10 mM HEPES buffer pH 7.5 in 96-well microtiter plates. Imipenem (300 μM) was used as substrate and its hydrolysis was followed at UV 299 nm during 10 mn every 30 seconds using a Perkin Elmer Envision UV fluorescence plate reader.
(§2) Mean Ki values from multiple experiments are presented below.
(§3) Studies were undertaken to compare the compounds of the invention with structurally similar compounds (“Comp. x”). Experiments were conducted as described above.

VIM-1 = VIM-1 (Pseudomonas aeruginosa, UniProt A0A0F7KYQ8); test: In vitro enzyme inhibition assay, purified VIM-1 (imipenem hydrolysis, UV 299 nm); format: biochemical
Experimental: as §1, §2, §3

VIM-2 = VIM-2 (Escherichia coli, UniProt Q5U7L7); test: In vitro enzyme inhibition assay, purified VIM-2 (imipenem hydrolysis, UV 299 nm); format: biochemical
Experimental: as §1, §2, §3

IMP-1 = IMP-1 (Serratia marcescens, UniProt P52699); test: In vitro enzyme inhibition assay, purified IMP-1 (imipenem hydrolysis, UV 299 nm); format: biochemical
Experimental: as §1, §2, §3

K. pneumoniae NTBC104 = test: In vivo efficacy, mouse thigh infection with K. pneumoniae NTBC104; details: meropenem 30 mg/kg plus compound 30 mg/kg, 9 hours post infection
Experimental: (§4) Mice were infected in the thigh with K. pneumoniae NTBC104. […] The MIC of meropenem in the presence of 8 ug/mL of the compound of Example 2 is 4 ug/mL.
At the end of the experiment (9 hours post infection) the animals were sacrificed and the numbers of colony forming units (CFUs) were measured in order to quantify bacterial load (extent of the infection).

[4] = tested on: NTBC104-1 (K. pneumoniae strain expressing NDM-1 and SHV-11); test: Meropenem MIC, broth micro-dilution, NTBC104-1; format: cell-based; details: 8 ug/mL of the compound
Experimental: The experiments were carried out using the ‘broth micro-dilution method’ according to the protocols M07-A8 established by the Clinical Laboratory Standards Institute (CLSI). Serial dilutions of the β-lactam antibiotic (Meropenem) were prepared in 96-well plates in cation-adjusted Mueller-Hinton broth (CAMHB); the concentration range was defined from 0.03 mg/L to 512 mg/L. The compounds were added at a constant concentration of 8 μg/mL. A bacterial inoculum of each strain (clinical isolates) was adjusted to a 0.5 McFarland turbidity standard in physiologic serum (0.9% NaCl), then diluted 1:100 in CAMHB and added to each well to give a final bacterial cell number of 5×10^5 CFU/well. After incubation for 18-20 hours in a heating chamber at 37° C., the growth inhibition was evaluated by the absence of any bacterial development.
Compounds of the invention were tested at a constant concentration of 8 μg/mL. The clinical strains used in these potentiation experiments were NTBC020 (E. coli strain expressing NDM-1, TEM-1 and CTX-M-15); NTBC035-2 (K. pneumoniae strain expressing NDM-1, CMY-4 and SHV-11); NTBC104-1 (K. pneumoniae strain expressing NDM-1 and SHV-11); NTBC123 (K. pneumoniae strain expressing NDM-1); NTBC018 (C. freundii strain expressing VIM-2); NTBC024 (K. pneumoniae strain expressing VIM-19, TEM-1 and CTX-M-3); NTBC042 (E. coli strain expressing VIM-1, TEM-1, CTX-M-15, SHV-12); NTBC055 (E. Coli strain expressing VIM-1); NTBC062 (K. pneumoniae strain expressing IMP-1 and TEM-1) and NTBC039 (K. oxytoca strain expressing IMP-28).
as §4
Experiments were carried out using the ‘broth micro-dilution method’ according to the protocols M07-A8 established by the Clinical Laboratory Standards Institute (CLSI). […] After incubation for 18-20 hours in a heating chamber at 37° C., the growth inhibition was evaluated by the absence of any bacterial development. […]

[5] = mean Ki from multiple experiments, imipenem 300 μM, Cheng-Prusoff from IC50, read-out: Ki NDM-1
[6] = mean Ki from multiple experiments, imipenem 300 μM, Cheng-Prusoff from IC50, read-out: Ki VIM-1
[7] = mean Ki from multiple experiments, imipenem 300 μM, Cheng-Prusoff from IC50, read-out: Ki VIM-2
[8] = mean Ki from multiple experiments, imipenem 300 μM, Cheng-Prusoff from IC50, read-out: Ki IMP-1

NDM-1, sequence (C7C422 29-270, looked up): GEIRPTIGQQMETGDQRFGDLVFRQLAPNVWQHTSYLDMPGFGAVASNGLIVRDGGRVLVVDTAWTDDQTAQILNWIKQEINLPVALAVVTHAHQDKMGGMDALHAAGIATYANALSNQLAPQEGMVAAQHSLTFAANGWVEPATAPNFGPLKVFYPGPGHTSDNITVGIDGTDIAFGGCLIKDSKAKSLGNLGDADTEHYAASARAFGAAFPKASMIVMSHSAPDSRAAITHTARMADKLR
IMP-1, sequence (P52699 19-246, looked up, species assumed): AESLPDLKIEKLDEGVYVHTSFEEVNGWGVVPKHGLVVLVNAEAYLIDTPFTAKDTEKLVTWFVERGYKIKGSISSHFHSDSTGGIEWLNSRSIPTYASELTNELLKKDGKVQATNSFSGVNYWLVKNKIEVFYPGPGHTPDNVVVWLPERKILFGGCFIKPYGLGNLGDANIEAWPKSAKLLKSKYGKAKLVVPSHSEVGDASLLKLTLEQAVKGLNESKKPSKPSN

| fraction unbound at 5 h, 10 μM [2] | AUC [3] [ng·h/mL] | C0 [3] [ng/mL] | clearance [3] [mL/min/kg] | Stability in human plasma, % remaining ([1]; after 5 hours) [% remaining after 5 hours] | cleared from the blood slower than Compound A ([3]; same dosage, mice) | exposure (AUC) compared to Compound A ([3]; same dosage, mice) [fold] | maximum concentration compared to Compound A ([3]; same dosage, mice) [fold] | Compound | Stability in human plasma, % remaining ([1]; after 2 hours) [% remaining after 2 hours] | Ki (NDM-1; [5]) [nM] | Ki (VIM-1; [6]) [nM] | Ki (VIM-2; [7]) [nM] | Ki (IMP-1; [8]) [nM] | Log10 reduction in CFUs compared to meropenem alone (K. pneumoniae NTBC104) [Log10] | Ki (NDM-1; comparative study bands, read-out: Ki NDM-1 (comparative study)) [nM] | Ki (VIM-1; comparative study bands, read-out: Ki VIM-1 (comparative study)) [nM] | Ki (VIM-2; comparative study bands, read-out: Ki VIM-2 (comparative study)) [nM] | Ki (IMP-1; comparative study bands, read-out: Ki IMP-1 (comparative study)) [nM] | MIC of meropenem in the presence of the compound, K. pneumoniae NTBC104 [4] [µg/mL] |
| --- | --- | --- | --- | --- | --- | --- | --- | --- | --- | --- | --- | --- | --- | --- | --- | --- | --- | --- | --- |
| 0.097 | 9 | 17 | 819 |  |  |  |  | NCC(=O)Nc1ccc(S(=O)(=O)Nc2scnc2C(=O)O)cc1F [Comp. A, reference compound] | 29 |  |  |  |  |  |  |  |  |  |  |
| 0.392 | 1040 | 1810 | 16 | 100 | about 50 fold | > 100 | > 100 | N=C(N)NCC(=O)Nc1ccc(S(=O)(=O)Nc2scnc2C(=O)O)cc1F [Example 7, 5-[[3-fluoro-4-[(2-guanidinoacetyl)amino]phenyl]sulfonylamino]thiazole-4-carboxylic acid] |  | 50 to 200 | 200 to 500 | 50 to 150 | 1000 to 10000 | 1.7 |  |  |  |  |  |

| Compound | fraction unbound at 5 h, 10 μM [2] | AUC [3] [ng·h/mL] | C0 [3] [ng/mL] | clearance [3] [mL/min/kg] | Stability in human plasma, % remaining ([1]; after 5 hours) [% remaining after 5 hours] | cleared from the blood slower than Compound A ([3]; same dosage, mice) | exposure (AUC) compared to Compound A ([3]; same dosage, mice) [fold] | maximum concentration compared to Compound A ([3]; same dosage, mice) [fold] | Stability in human plasma, % remaining ([1]; after 2 hours) [% remaining after 2 hours] | Ki (NDM-1; [5]) [nM] | Ki (VIM-1; [6]) [nM] | Ki (VIM-2; [7]) [nM] | Ki (IMP-1; [8]) [nM] | Log10 reduction in CFUs compared to meropenem alone (K. pneumoniae NTBC104) [Log10] | Ki (NDM-1; comparative study bands, read-out: Ki NDM-1 (comparative study)) [nM] | Ki (VIM-1; comparative study bands, read-out: Ki VIM-1 (comparative study)) [nM] | Ki (VIM-2; comparative study bands, read-out: Ki VIM-2 (comparative study)) [nM] | Ki (IMP-1; comparative study bands, read-out: Ki IMP-1 (comparative study)) [nM] | MIC of meropenem in the presence of the compound, K. pneumoniae NTBC104 [4] [µg/mL] |
| --- | --- | --- | --- | --- | --- | --- | --- | --- | --- | --- | --- | --- | --- | --- | --- | --- | --- | --- | --- |
| N=C(N)NCC(=O)Nc1c(F)cc(S(=O)(=O)Nc2scnc2C(=O)O)cc1F [Example 2, 5-[[3,5-difluoro-4-[(2-guanidinoacetyl)amino]phenyl]sulfonylamino]thiazole-4-carboxylic acid] | 0.19 |  |  |  |  |  |  |  | 73 | < 50 | 200 to 500 | 50 to 150 | 1000 to 10000 | 1.6 | < 30 | 300 to 500 | 50 to 100 | 600 to 5000 | 4 |
